{"source": "patent US20250066338A1", "about": "“CERTAIN 3-AZABICYCLO[3.1.0]HEXANES AS GLP-1 RECEPTOR MODULATORS” (AstraZeneca AB, priority 2021, published 2025)", "key": {"[1]": {"biological_target": "GLP-1R in EndoC-βH1 cells (Homo sapiens (Human), UniProt P43220)", "sequence (P43220 24-463)": "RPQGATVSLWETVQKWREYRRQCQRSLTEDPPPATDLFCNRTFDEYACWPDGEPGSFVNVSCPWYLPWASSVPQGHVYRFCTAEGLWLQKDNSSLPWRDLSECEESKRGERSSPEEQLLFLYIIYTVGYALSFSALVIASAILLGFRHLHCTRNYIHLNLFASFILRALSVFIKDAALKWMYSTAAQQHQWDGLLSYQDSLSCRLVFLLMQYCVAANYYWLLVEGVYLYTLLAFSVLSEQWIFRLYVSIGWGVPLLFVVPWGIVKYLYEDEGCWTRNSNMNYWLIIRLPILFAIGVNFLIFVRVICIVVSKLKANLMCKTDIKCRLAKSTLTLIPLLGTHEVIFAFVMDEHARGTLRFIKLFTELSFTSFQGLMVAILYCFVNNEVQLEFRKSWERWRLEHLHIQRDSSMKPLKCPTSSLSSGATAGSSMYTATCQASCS", "test": "EndoC cAMP Accumulation Assay", "format": "cell-based", "conditions": "EndoC-βH1 human pancreatic beta cell line; HTRF cAMP accumulation", "excerpt": "EndoC cAMP Accumulation Assay\nA HTRF cAMP assay (cAMP Gs dynamic kit; CisoBio Cat #62AM4PEJ) was used to identify agonists of GLP-1R in a pancreatic insulinoma cell line (EndoC-βH1). […] EndoC-βH1 cells have detectable GLP-1R messenger ribonucleic acid (mRNA) as detected by quantitative polymerase chain reaction (qPCR). […] The EndoC-βH1 cell line is a valid model of human beta cells and applicable for screenings to identify novel drug target candidates (Mol. Metab., 2018, 8, 144-157). CisBio HTRF cAMP kits are based on a competitive immunoassay using cryptate-labelled anti-cAMP antibody and d2-labeled cAMP. The detection kit is intended for the direct quantitative determination of cAMP. The specific signal (i.e. energy transfer) is inversely proportional to the concentration of cAMP in the standard or sample. Test compounds (10 mM in DMSO) were diluted into assay buffer (HBSS (Sigma #H8264) supplemented with 25 mM HEPES (Gibco #15630, pH 7.4), 0.1% BSA (Sigma #A3059) and 0.5 mM IBMX (Sigma #17018) included fresh on the day of the assay) into 96 well U-bottom plates (Greiner #650201). Diluted compounds were transferred to ECHO source polypropylene plates (Labcyte #P-05525) and dose response curves were dispensed acoustically using ECHO 550 into black shallow-well u-bottom 384-well HTRF Assay Plates (Corning 4514).\nCryovials of EndoC-H1 (supplied at 1×10e^7 cells/vial) were used directly for screening. The cryovials and were removed from N2 (1) and thawed rapidly in a 37° C. water bath. The cells were resuspended in assay buffer and centrifuged at 300 g for 5 min. Cells were resuspended in assay buffer at the appropriate concentration, typically at 12e5 cells per mL (3000 cells per well, dependent on cell batch) and 2.5 μL diluted cells were added to all wells of destination plate by Multidrop combi reagent dispenser (Thermofisher). The plates were incubated at rt for 30 min. The assay was stopped by adding 2.5 μL anti-cAMP cryptate solution to all wells and 2.5 μL cAMP-d2 solution (both diluted 1:20 in lysis buffer) to columns 1-22 by Combi drop. A volume of 2.5 μL cAMP-d2 solution was added to wells E23 to P24 and 2.5 μL lysis buffer added to wells A23 to D24 by multichannel pipette. The plates were incubated at rt for 1 h and read on an Envision plate reader using excitation wavelength of 320 nm and emission of […] and 660 nm.\nRaw data from Envision is converted to % DeltaF according to the manufacturer's instructions. Dose response curves are analysed via 4-Parameter Logistical Analysis and assay plate Z′ values obtained. Samples are graphed as percentage (%) activation plots compared to GIP (1-42, Bachem H-5645) with assay window defined by negative control as basal cell cAMP levels and positive control are defined by maximum GIP (82.5 nM) signal. GLP1 (7-36 amide, Bachem H-6795) dose response curve was included on all plates."}, "human GLP-1R receptor": {"biological_target": "human GLP-1R receptor (Homo sapiens (Human), UniProt P43220, L260F)", "sequence (P43220 24-463 L260F)": "as the sequence (P43220 24-463) above, with L237F counted along it", "test": "CHOK1 GLP-1R cAMP Assay", "format": "cell-based", "conditions": "CHO-K1 cell line stably expressing human GLP-1R; HTRF cAMP; agonist activity", "experimental": "A cell line stably expressing the human GLP-1R receptor (NM 002062.5, including the naturally-occurring variant Leu260Phe) in a CHO-K1 (ATCC® CCL-61™) was used for assay.\nGLP-1 receptor mediated agonist activity was determined in a cell based assay measuring cyclic adenosine monophosphate (cAMP) levels in cells using Homogeneous Time-Resolved Fluorescence (HTRF) cAMP detection kit (CisBio catalog #62AM4PEC, cAMP Gs Dynamic range kit). The cAMP detection method is based on a competitive immunoassay, in which cAMP produced by the cells and cAMP labeled with the dye d2 compete for binding to a Europium-Cryptate-labeled anti-cAMP antibody. The specific HTRF signal is inversely proportional to the concentration of cAMP.\nCompounds were added to individual well in 384 well-assay plates (Greiner #784076) using an Echo (LabCyte) dispenser from 10 mM stocks. Varying concentration of compounds were added to wells, and DMSO was used to normalize each well to a volume of 100 nL. A dose response curve of GLP1(7-36)NH2 (Bachem H-6795) was included in each run. 5 μL of cAMP concentration response standards are applied in specified wells in the assay plates. Cryo-preserved cells are thawed and resuspended in assay buffer pre-heated to 37° C. (20 mM HEPES pH 7.4, lx Hank's Balanced Salt Solution (HBSS, Life Technologies #14065) supplemented with 0.1% (w/v) bovine serum albumin (Sigma, A-7030). Cells were centrifuged at 250*g for 5 min at rt, and resuspended in room tempered assay buffer to a final density of 0.16*10^6 cell/mL, to deliver 800 cells/well. 5 μL of assay buffer with 1 mM 3-isobutyl-1-methylxanthin (IBMX; Sigma cat I-7018) was dispensed per well in assay plates using a multidrop combi (Thermo Scientific) subsequently 5 μL of cell suspension was distributed to relevant wells in the assay using a multidrop dispenser. Assay plates were incubated 20 min at rt.\nDetection reagents, Europium-Cryptate-labeled anti-cAMP antibody and cAMP labeled with the dye d2, are diluted in lysis buffer, provided by the manufacturer. 5 μL of each detection reagent is supplemented to each assay well using a multidrop dispenser. Assay plates are incubated in the dark for at least one h. The HTRF signal is measured using the HTRF module (excitation: 337 nm, emission A: 665 nm and emission B: 620 nm) in Pherastar FSX (BMG Labtech).\nRaw data were converted to pM cAMP using the cAMP standard curve included in each run. Converted data were further analyzed in Genedata Screener (Genedata) and EC50 determinations were made from agonist dose-response curves analyzed with a curve fitting program using a 4-parameter logistic dose response equation (Equation y=A+((B−A)/1+((C/x)^D))) where A is no stimulation, B is full stimulation, C is the EC50 and D is the Hill slope). The percent effect was determined relative to a saturating concentration of a full GLP-1R agonist (GLP1(7-36)NH2 has 100% effect in this assay setup)."}, "[2]": {"biological_target": "human phosphodiesterase-3A (Homo sapiens (Human), UniProt Q14432)", "sequence (Q14432 whole entry)": "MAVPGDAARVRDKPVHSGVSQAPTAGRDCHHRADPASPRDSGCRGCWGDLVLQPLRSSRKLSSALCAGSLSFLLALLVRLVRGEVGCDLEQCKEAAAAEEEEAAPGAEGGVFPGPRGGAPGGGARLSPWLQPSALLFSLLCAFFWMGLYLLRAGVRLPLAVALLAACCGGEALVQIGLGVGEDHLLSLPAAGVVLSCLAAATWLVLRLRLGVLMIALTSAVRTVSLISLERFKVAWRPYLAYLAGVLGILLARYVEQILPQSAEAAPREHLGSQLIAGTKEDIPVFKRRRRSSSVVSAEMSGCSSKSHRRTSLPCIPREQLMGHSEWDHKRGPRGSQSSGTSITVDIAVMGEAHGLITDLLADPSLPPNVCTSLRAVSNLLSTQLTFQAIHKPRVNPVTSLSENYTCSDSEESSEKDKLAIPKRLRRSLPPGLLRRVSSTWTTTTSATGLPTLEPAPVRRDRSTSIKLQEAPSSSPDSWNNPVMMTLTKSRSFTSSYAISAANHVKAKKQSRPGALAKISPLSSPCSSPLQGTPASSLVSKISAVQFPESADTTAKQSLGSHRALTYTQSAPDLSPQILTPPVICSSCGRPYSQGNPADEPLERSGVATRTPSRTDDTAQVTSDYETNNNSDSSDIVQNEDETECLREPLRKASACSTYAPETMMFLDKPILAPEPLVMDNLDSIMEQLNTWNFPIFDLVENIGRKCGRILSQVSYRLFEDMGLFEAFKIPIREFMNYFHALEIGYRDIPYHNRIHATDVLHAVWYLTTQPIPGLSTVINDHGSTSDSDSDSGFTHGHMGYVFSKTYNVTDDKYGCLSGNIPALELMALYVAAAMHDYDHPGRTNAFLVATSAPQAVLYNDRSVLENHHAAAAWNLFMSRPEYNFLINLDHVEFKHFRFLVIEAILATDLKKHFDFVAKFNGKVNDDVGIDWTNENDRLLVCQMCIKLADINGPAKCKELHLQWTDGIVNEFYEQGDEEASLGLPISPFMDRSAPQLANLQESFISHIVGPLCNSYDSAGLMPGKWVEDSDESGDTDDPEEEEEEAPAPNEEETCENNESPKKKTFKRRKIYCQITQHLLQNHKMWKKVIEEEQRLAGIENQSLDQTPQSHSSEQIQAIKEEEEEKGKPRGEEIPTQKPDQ", "test": "PDE3 Assay", "format": "biochemical", "conditions": "human recombinant enzyme expressed in Sf9 cells; formation of 5'AMP from cAMP", "experimental": "Evaluation of the effects of compounds on the activity of the human phosphodiesterase-3A is quantified by measuring the formation of 5′AMP from cAMP using a human recombinant enzyme expressed in a clonal isolate of Spodoptera frugiperda cells (Sf9) cells.\nThe test compound, reference compound or water (control) are added to a buffer containing 40 mM tris(hydroxymethyl)aminomethane (Tris)/HCl (pH 7.4) and 8 mM MgCl2, 450 nMcAMP and 0.25 μCi [^3H]cAMP.\nThereafter, the reaction is initiated by addition of the enzyme (about 1 U) and the mixture is incubated for 20 min at 22° C.\nFor basal control measurements, the enzyme is omitted from the reaction mixture. Following incubation SPA beads are added. After 30 min at 22° C. under shaking, the amount of [^3H]^+ 5′AMP is quantified with a scintillation counter (Topcount, Packard).\nThe results are expressed as a percent inhibition of the control enzyme activity. The standard inhibitory reference compound is milrinone (CAS number 78415-72-2), which is tested in each experiment at several concentrations to obtain an inhibition curve from which its IC50 value is calculated."}}}
{"smiles": "O=C(O)c1ccc2nc(CN3C[C@@H]4[C@H](C3)[C@H]4c3cccc(OCc4ccc(Cl)cc4F)n3)n(C[C@@H]3CCO3)c2c1", "note": "[Example 13, 2-(((1R,5S,6S)-6-(6-((4-Chloro-2-fluorobenzyl)oxy)pyridin-2-yl)-3-azabicyclo[3.1.0]hexan-3-yl)methyl)-1-(((S)-oxetan-2-yl)methyl)-1H-benzo[d]imidazole-6-carboxylic acid]", "values": [{"measurement": "EC50", "setting": "[1]", "value": 0.023, "unit": "µM"}, {"measurement": "EC50", "setting": "human GLP-1R receptor", "value": 0.1, "unit": "µM"}, {"measurement": "IC50", "setting": "[2]", "value": "> 100", "unit": "µM"}]}
{"smiles": "O=C(O)c1cc(F)c2nc(CN3C[C@@H]4[C@H](C3)[C@H]4c3cccc(OCc4ccc(Cl)cc4F)n3)n(C[C@@H]3CCO3)c2c1", "note": "[Example 15, 2-(((1R,5S,6S)-6-(6-((4-Chloro-2-fluorobenzyl)oxy)pyridin-2-yl)-3-azabicyclo[3.1.0]hexan-3-yl)methyl)-4-fluoro-1-(((S)-oxetan-2-yl)methyl)-1H-benzo[d]imidazole-6-carboxylic acid]", "values": [{"measurement": "EC50", "setting": "[1]", "value": 0.028, "unit": "µM"}, {"measurement": "EC50", "setting": "human GLP-1R receptor", "value": 0.057, "unit": "µM"}]}
{"smiles": "O=C(O)c1ccc2nc(CN3C[C@@H]4[C@H](C3)[C@H]4c3nc(OCc4ccc(Cl)cc4F)ccc3F)n(C[C@@H]3CCO3)c2c1", "note": "[Example 16, 2-(((1R,5S,6S)-6-(6-((4-Chloro-2-fluorobenzyl)oxy)-3-fluoropyridin-2-yl)-3-azabicyclo[3.1.0]hexan-3-yl)methyl)-1-(((S)-oxetan-2-yl)methyl)-1H-benzo[d]imidazole-6-carboxylic acid]", "values": [{"measurement": "EC50", "setting": "[1]", "value": 0.024, "unit": "µM"}, {"measurement": "EC50", "setting": "human GLP-1R receptor", "value": 0.047, "unit": "µM"}]}
{"smiles": "CCn1cncc1Cn1c(CN2C[C@@H]3[C@H](C2)[C@H]3c2nc(OCc3ccc(Cl)cc3F)ccc2F)nc2c(OC)cc(C(=O)O)cc21", "note": "[Example 17, 2-(((1R,5S,6r)-6-(6-((4-Chloro-2-fluorobenzyl)oxy)-3-fluoropyridin-2-yl)-3-azabicyclo[3.1.0]hexan-3-yl)methyl)-1-((1-ethyl-1H-imidazol-5-yl)methyl)-4-methoxy-1H-benzo[d]imidazole-6-carboxylic acid]", "values": [{"measurement": "EC50", "setting": "[1]", "value": 0.0093, "unit": "µM"}, {"measurement": "EC50", "setting": "human GLP-1R receptor", "value": 0.015, "unit": "µM"}, {"measurement": "IC50", "setting": "[2]", "value": "> 100", "unit": "µM"}]}
{"smiles": "COc1cc(C(=O)O)cc2c1nc(CN1C[C@@H]3[C@H](C1)[C@H]3c1nc(OCc3ccc(Cl)cc3F)ccc1Cl)n2C[C@@H]1CCO1", "note": "[Example 18, 2-(((1R,5S,6S)-6-(3-Chloro-6-((4-chloro-2-fluorobenzyl)oxy)pyridin-2-yl)-3-azabicyclo[3.1.0]hexan-3-yl)methyl)-4-methoxy-1-(((S)-oxetan-2-yl)methyl)-1H-benzo[d]imidazole-6-carboxylic acid]", "values": [{"measurement": "EC50", "setting": "[1]", "value": 0.042, "unit": "µM"}, {"measurement": "EC50", "setting": "human GLP-1R receptor", "value": 0.066, "unit": "µM"}]}
{"smiles": "COc1cc(C(=O)O)cc2c1nc(CN1C[C@@H]3[C@H](C1)[C@H]3c1cccc(OCc3ccc(F)cc3F)n1)n2C[C@@H]1CCO1", "note": "[Example 20, 2-(((1R,5S,6S)-6-(6-((2,4-Difluorobenzyl)oxy)pyridin-2-yl)-3-azabicyclo[3.1.0]hexan-3-yl)methyl)-4-methoxy-1-(((S)-oxetan-2-yl)methyl)-1H-benzo[d]imidazole-6-carboxylic acid]", "values": [{"measurement": "EC50", "setting": "[1]", "value": 0.043, "unit": "µM"}, {"measurement": "EC50", "setting": "human GLP-1R receptor", "value": 0.062, "unit": "µM"}]}
{"smiles": "COc1cc(C(=O)O)cc2c1nc(CN1C[C@@H]3[C@H](C1)[C@H]3c1cccc(OCc3cc(C)ccc3F)n1)n2C[C@@H]1CCO1", "note": "[Example 21, 2-(((1R,5S,6S)-6-(6-((2-Fluoro-5-methylbenzyl)oxy)pyridin-2-yl)-3-azabicyclo[3.1.0]hexan-3-yl)methyl)-4-methoxy-1-(((S)-oxetan-2-yl)methyl)-1H-benzo[d]imidazole-6-carboxylic acid]", "values": [{"measurement": "EC50", "setting": "[1]", "value": 1.1, "unit": "µM"}, {"measurement": "EC50", "setting": "human GLP-1R receptor", "value": 0.044, "unit": "µM"}]}
{"smiles": "COc1cc(C(=O)O)cc2c1nc(CN1C[C@@H]3[C@H](C1)[C@H]3c1cccc(OCc3ccccc3OC(F)F)n1)n2C[C@@H]1CCO1", "note": "[Example 22, 2-(((1R,5S,6S)-6-(6-((2-(Difluoromethoxy)benzyl)oxy)pyridin-2-yl)-3-azabicyclo[3.1.0]hexan-3-yl)methyl)-4-methoxy-1-(((S)-oxetan-2-yl)methyl)-1H-benzo[d]imidazole-6-carboxylic acid]", "values": [{"measurement": "EC50", "setting": "[1]", "value": 0.034, "unit": "µM"}, {"measurement": "EC50", "setting": "human GLP-1R receptor", "value": 0.049, "unit": "µM"}]}
{"smiles": "COc1cc(C(=O)O)cc2c1nc(CN1C[C@@H]3[C@H](C1)[C@H]3c1cccc(OCc3ccc(C)cc3)n1)n2C[C@@H]1CCO1", "note": "[Example 23, 4-Methoxy-2-(((1R,5S,6S)-6-(6-((4-methylbenzyl)oxy)pyridin-2-yl)-3-azabicyclo[3.1.0]hexan-3-yl)methyl)-1-(((S)-oxetan-2-yl)methyl)-1H-benzo[d]imidazole-6-carboxylic acid]", "values": [{"measurement": "EC50", "setting": "[1]", "value": 0.031, "unit": "µM"}, {"measurement": "EC50", "setting": "human GLP-1R receptor", "value": 0.074, "unit": "µM"}]}
{"smiles": "N#Cc1ccc(COc2cccc(C3=CCN(Cc4nc5ccc(C(=O)O)cc5n4C[C@@H]4CCO4)CC3)n2)c(F)c1", "note": "[Ref Comp A, reference compound]", "values": [{"measurement": "IC50", "setting": "[2]", "value": 4, "unit": "µM"}]}
{"smiles": "N#Cc1ccc(COc2cccc(C3CCN(Cc4nc5ccc(C(=O)O)cc5n4C[C@H]4CCO4)CC3)n2)c(F)c1", "note": "[Ref Comp B, reference compound]", "values": [{"measurement": "IC50", "setting": "[2]", "value": 11, "unit": "µM"}]}
{"smiles": "Cc1cc(Cc2nc3ccc(C(=O)O)cc3n2C[C@@H]2CCO2)c(F)cc1-c1cccc(OCc2ccc(C#N)cc2F)n1", "note": "[Ref Comp D, reference compound]", "values": [{"measurement": "IC50", "setting": "[2]", "value": 5, "unit": "µM"}]}
